Where “and” joins values, the source holds several entries; their conditions need not be identical. Equal entries are not always repeated. Where two headings read alike, the source gives them in different places.
Tested on: DosRST regulon
Type: cell-based
Details: for Counts per million (CPM) WT_HC103A: replicates 1, 2

## O=C(Nc1cccc(O)c1)c1cccc(NC(=O)c2cccs2)c1 [HC103A, N-[3-[(3 hydroxyphenyl)carbamoyl]phenyl]thiophene-2-carboxamide]
40 μM, 6 days, >2-fold, p<0.05
  genes downregulated by compound (total): 90 genes
CDC1551, 40 μM, 6 days
  downregulation of tgs1 gene (transcriptional profiling): ~180 fold
Gene MT36S5 Rv3551
  WT DMSO/WT HC103A fold change: 0.4042
  log2 Fold change: −1.307
Gene MT0086 Rv0079
  WT DMSO/WT HC103A fold change: 0.2341
  log2 Fold change: −2.095
Gene MT0087 Rv0080
  WT DMSO/WT HC103A fold change: 0.2783
  log2 Fold change: −1.845
Gene MT0207 Rv0197
  WT DMSO/WT HC103A fold change: 3.65
  log2 Fold change: 1.868
Gene MT0337 Rv0322 udgA
  WT DMSO/WT HC103A fold change: 2.459
  log2 Fold change: 1.298
Gene MT0468 Rv0452
  WT DMSO/WT HC103A fold change: 2.465
  log2 Fold change: 1.301
Gene MT0491 Rv0474
  WT DMSO/WT HC103A fold change: 2.323
  log2 Fold change: 1.216
Gene MT0585 Rv0559c
  WT DMSO/WT HC103A fold change: 5.989
  log2 Fold change: 2.582
Gene MT0586 Rv0560c
  WT DMSO/WT HC103A fold change: 282
  log2 Fold change: 8.139
Gene MT0595 Rv0569
  WT DMSO/WT HC103A fold change: 0.1236
  log2 Fold change: −3.016
Gene MT0596 Rv0570 nrdZ
  WT DMSO/WT HC103A fold change: 0.02807
  log2 Fold change: −5.155
  Counts per million (CPM) WT_HC103A: 73.81 CPM and 59.09 CPM
Gene MT0597 Rv0571c
  WT DMSO/WT HC103A fold change: 0.1705
  log2 Fold change: −2.552
  Counts per million (CPM) WT_HC103A: 71.16 CPM and 45.13 CPM
Gene MT0598
  WT DMSO/WT HC103A fold change: 0.1036
  log2 Fold change: −3.27
  Counts per million (CPM) WT_HC103A: 38.26 CPM and 19.74 CPM
Gene MT0599 Rv0572c
  WT DMSO/WT HC103A fold change: 0.05128
  log2 Fold change: −4.028
  Counts per million (CPM) WT_HC103A: 49.68 CPM and 34.61 CPM
Gene MT0600
  WT DMSO/WT HC103A fold change: 0.02301
  log2 Fold change: −5.442
  Counts per million (CPM) WT_HC103A: 44.59 CPM and 9.221 CPM
Gene MT0601 Rv0573c
  WT DMSO/WT HC103A fold change: 0.1124
  log2 Fold change: −3.153
  Counts per million (CPM) WT_HC103A: 11.49 CPM and 9.546 CPM
Gene MT0602 Rv0574c
  WT DMSO/WT HC103A fold change: 0.05787
  log2 Fold change: −4.111
  Counts per million (CPM) WT_HC103A: 26.39 CPM and 16.69 CPM
Gene MT0808 Rv0784
  WT DMSO/WT HC103A fold change: 4.409
  log2 Fold change: 2.141
Gene MT0846 Rv0824c desA1
  WT DMSO/WT HC103A fold change: 0.3753
  log2 Fold change: −1.414
  Counts per million (CPM) WT_HC103A: 2,581.69 CPM and 3,416.39 CPM
Gene MT0910 Rv0887c
  WT DMSO/WT HC103A fold change: 2.543
  log2 Fold change: 1.346
Gene MT1095 Rv1065
  WT DMSO/WT HC103A fold change: 0.3758
  log2 Fold change: −1.412
  Counts per million (CPM) WT_HC103A: 198.5 CPM and 168.6 CPM
Gene MT1126 Rv1094 desA2
  WT DMSO/WT HC103A fold change: 0.3586
  log2 Fold change: −1.44
  Counts per million (CPM) WT_HC103A: 2,249.03 CPM and 2,771.69 CPM
Gene MT1294 Rv1255c
  WT DMSO/WT HC103A fold change: 3.371
  log2 Fold change: 1.753
Gene MT1322 Rv1284
  WT DMSO/WT HC103A fold change: 0.3386
  log2 Fold change: −1.562
  Counts per million (CPM) WT_HC103A: 223.7 CPM and 205.3 CPM
Gene MT1608 Rv1557 mmpL6
  WT DMSO/WT HC103A fold change: 8.81
  log2 Fold change: 3.139
Gene MT1692 Rv1654 argB
  WT DMSO/WT HC103A fold change: 0.2745
  log2 Fold change: −1.865
  Counts per million (CPM) WT_HC103A: 176.3 CPM and 60.13 CPM
Gene MT1693 Rv1655 argD
  WT DMSO/WT HC103A fold change: 0.2592
  log2 Fold change: −1.948
  Counts per million (CPM) WT_HC103A: 135.1 CPM and 51.69 CPM
Gene MT1694 Rv1656 argF
  WT DMSO/WT HC103A fold change: 0.214
  log2 Fold change: −2.224
  Counts per million (CPM) WT_HC103A: 115.2 CPM and 42.01 CPM
Gene MT1774 Rv1733c
  WT DMSO/WT HC103A fold change: 0.01521
  log2 Fold change: −6.039
  Counts per million (CPM) WT_HC103A: 40.51 CPM and 8.961 CPM
Gene MT1775
  WT DMSO/WT HC103A fold change: 0.1012
  log2 Fold change: −3.305
  Counts per million (CPM) WT_HC103A: 101.9 CPM and 24.16 CPM
Gene MT1776 Rv1735c
  WT DMSO/WT HC103A fold change: 0.2125
  log2 Fold change: −2.234
  Counts per million (CPM) WT_HC103A: 4.991 CPM and 2.922 CPM
Gene MT1777
  WT DMSO/WT HC103A fold change: 0.02322
  log2 Fold change: −5.428
  Counts per million (CPM) WT_HC103A: 5.142 CPM and 2.013 CPM
Gene MT1778 Rv1736c narX
  WT DMSO/WT HC103A fold change: 0.0157
  log2 Fold change: −5.993
  Counts per million (CPM) WT_HC103A: 122.3 CPM and 26.17 CPM
Gene MT1779 Rv1737c narK2
  WT DMSO/WT HC103A fold change: 0.01434
  log2 Fold change: −6.124
  Counts per million (CPM) WT_HC103A: 36.9 CPM and 14.55 CPM
Gene MT1780 Rv1738
  WT DMSO/WT HC103A fold change: 0.01855
  log2 Fold change: −5.752
  Counts per million (CPM) WT_HC103A: 133.5 CPM and 33.12 CPM
Gene MT1823 (Rv1773c)
  WT DMSO/WT HC103A fold change: 0.36
  log2 Fold change: −1.434
Gene MT1823 Rv1773c
  Counts per million (CPM) WT_HC103A: 222.7 CPM and 163.7 CPM
Gene MT1851 Rv1813c
  WT DMSO/WT HC103A fold change: 0.01771
  log2 Fold change: −5.819
  Counts per million (CPM) WT_HC103A: 58.53 CPM and 24.74 CPM
Gene MT1860 Rv1812c
  WT DMSO/WT HC103A fold change: 0.3778
  log2 Fold change: −1.404
  Counts per million (CPM) WT_HC103A: 78.19 CPM and 78.7 CPM
Gene MT1882 (Rv1834)
  WT DMSO/WT HC103A fold change: 0.3504
  log2 Fold change: −1.472
Gene MT1882 Rv1834
  Counts per million (CPM) WT_HC103A: 28.36 CPM and 29.22 CPM
Gene MT1986 (Rv1936)
  WT DMSO/WT HC103A fold change: 0.2546
  log2 Fold change: −1.918
Gene MT1986 Rv1936
  Counts per million (CPM) WT_HC103A: 72.29 CPM and 31.56 CPM
Gene MT1987 (Rv1937)
  WT DMSO/WT HC103A fold change: 0.2435
  log2 Fold change: −2.038
Gene MT1987 Rv1937
  Counts per million (CPM) WT_HC103A: 83.71 CPM and 36.75 CPM
Gene MT1988 Rv1938 ephB
  WT DMSO/WT HC103A fold change: 0.2508
  log2 Fold change: −1.995
  Counts per million (CPM) WT_HC103A: 32.14 CPM and 15.97 CPM
Gene MT1989 (Rv1939)
  WT DMSO/WT HC103A fold change: 0.2883
  log2 Fold change: −1.794
Gene MT1989 Rv1939
  Counts per million (CPM) WT_HC103A: 16.33 CPM and 8.831 CPM
Gene MT2016 (Rv1964)
  WT DMSO/WT HC103A fold change: 0.2736
  log2 Fold change: −1.87
Gene MT2016 Rv1964
  Counts per million (CPM) WT_HC103A: 93.32 CPM and 56.95 CPM
Gene MT2017
  WT DMSO/WT HC103A fold change: 0.1841
  log2 Fold change: −2.441
  Counts per million (CPM) WT_HC103A: 44.46 CPM and 29.87 CPM
Gene MT2018 (Rv1966 mce3)
  WT DMSO/WT HC103A fold change: 0.194
  log2 Fold change: −2.366
Gene MT2018 Rv1966 mce3
  Counts per million (CPM) WT_HC103A: 54.83 CPM and 33.77 CPM

From patent US11717508B2, “Compounds, compositions, and methods for inhibiting bacterial growth” (priority 2016, dated 2023)
